In brackets after ≈: the same amount, converted by molar mass. Like-named read-outs stand apart in the source and are kept apart here.
Legend:
[1] = test system: NaD1-resistant strains of S. cerevisiae compared to wild type BY4741; assay: Stress spot assay on YPD agar; type: cell-based, Saccharomyces cerevisiae; conditions: for concentration that inhibited NaD1-resistant strains but not the wild type: YPD agar spot assay, Figure 6; for concentration at which sensitivity of the NaD1-resistant strains was observed: YPD agar, fivefold dilution spots, overnight 30°C, Supplementary Figures 3 and 4; for growth of NaD1-resistant strains relative to wild-type: result in words
Protocol: YPD agar medium (25 mL) was amended to a final concentration of hydrogen peroxide (0.625 mM, 1.25 mM, 2.5 mM, 5 mM), CFW (1 μg/mL, 2.5 μg/mL, 5 μg/mL, 10 μg/mL), NaCl (100 mM, 200 mM, 300 mM), or SDS (12.5 μg/mL, 25 μg/mL, 50 μg/mL, 100 μg/mL) just before each plate was poured. Yeast cultures were grown overnight in 5 mL of YPD before dilution to an OD 600 nm of 0.1. A fivefold dilution series of each culture was spotted onto the plate (4 μL per spot) and incubated overnight at 30°C before being photographed.

[2] = test system: S. cerevisiae NaD1-resistant strain C; assay: Antifungal growth assay, NaD1-R C; type: cell-based; conditions: Saccharomyces cerevisiae, Table 1, ½ PDB, 24 h at 30°C, OD600, read-out: Caspofungin MIC
Protocol: (§1) S. cerevisiae BY4741 was grown overnight at 30°C with agitation in 5 mL of YPD. The overnight culture was then diluted to an OD 600 nm of 0.01 in 50% strength PDB medium (½ PDB) before addition of antifungal molecules. Cultures were initially grown with the antifungal molecules at 0.5x the minimum inhibitory concentration (MIC) or 1x MIC alongside a negative control lacking antifungals. Three independent lines for the test and controls were grown at the same time. The cultures were incubated overnight at 30°C with agitation. […] Sub-culturing was stopped once growth occurred at 32 times the original MIC.
(§2) Cultures that were more tolerant to the antifungal molecule were streaked out for single colonies on non-selective YPD agar. Three colonies were picked from each line, and their resistance was re-tested. The colony with the highest resistance to the antifungal was retained for further experimentation. The MIC of pure strains isolated from each culture was broadly equivalent (Supplementary Figure 1).
(§3) Antifungal assays were performed as described in [Hayes et al. (2013)]. Briefly, cultures were grown overnight (30°C, 250 rpm) in 5 mL YPD and diluted to an OD600 of 0.01 in ½ PDB. […] The final OD600 was measured using a SpectraMAX M5e plate reader (Molecular Devices).

[3] = test system: S. cerevisiae Caspofungin-R B; assay: Antifungal growth assay, Caspofungin-R B; type: cell-based; conditions: Saccharomyces cerevisiae, Table 1, ½ PDB, 24 h at 30°C, OD600
Protocol: as §1, §2, §3

[4] = test system: S. cerevisiae Caspofungin-R C; assay: Antifungal growth assay, Caspofungin-R C; type: cell-based; conditions: Saccharomyces cerevisiae, Table 1, ½ PDB, 24 h at 30°C, OD600
Protocol: as §1, §2, §3

[5] = test system: S. cerevisiae BY4741 wild-type; assay: Antifungal growth assay, wild-type strain; type: cell-based; conditions: Saccharomyces cerevisiae
Protocol: (§4) Antifungal assays were performed as described in [Hayes et al. (2013)]. Briefly, cultures were grown overnight (30°C, 250 rpm) in 5 mL YPD and diluted to an OD600 of 0.01 in ½ PDB. Antifungal molecules were prepared at 10x the assay concentration, and 10 μL was mixed with 90 μL of diluted yeast culture before incubation for 24 h at 30°C. The final OD600 was measured using a SpectraMAX M5e plate reader (Molecular Devices).

[6] = test system: no-treatment control lines of S. cerevisiae; assay: Antifungal growth assay, no-treatment control lines (stated together); type: cell-based; conditions: Saccharomyces cerevisiae, read-out: MIC against no treatment control
Protocol: as §1, §4

[7] = test system: NaD1-resistant strains of S. cerevisiae; assay: Antifungal growth assay, NaD1-resistant strains (stated together); type: cell-based, Saccharomyces cerevisiae; conditions: Figure 2B; result in words
Protocol: as §1, §2, §3

[8] = test system: S. cerevisiae Caspofungin-R A; assay: Antifungal growth assay, Caspofungin-R A; type: cell-based; conditions: Saccharomyces cerevisiae, Table 1, ½ PDB, 24 h at 30°C, OD600
Protocol: as §1, §2, §3

[9] = test system: S. cerevisiae BY4741; assay: Serial sub-culturing in the presence of antifungal to develop resistance; type: cell-based, Saccharomyces cerevisiae; conditions: caspofungin-resistant lines
Protocol: as §1

[10] = test system: caspofungin-resistant isolates of S. cerevisiae; assay: Antifungal growth assay, caspofungin-resistant isolates (stated together); type: cell-based, Saccharomyces cerevisiae
Protocol: as §1, §2, §3

[11] = test system: S. cerevisiae NaD1-resistant strain A; assay: Antifungal growth assay, NaD1-R A; type: cell-based; conditions: Saccharomyces cerevisiae, Table 1, ½ PDB, 24 h at 30°C, OD600, read-out: Caspofungin MIC
Protocol: as §1, §2, §3

[12] = test system: S. cerevisiae NaD1-resistant strain B; assay: Antifungal growth assay, NaD1-R B; type: cell-based; conditions: Saccharomyces cerevisiae, Table 1, ½ PDB, 24 h at 30°C, OD600, read-out: Caspofungin MIC
Protocol: as §1, §2, §3

O=S(=O)(O)c1cc(Nc2nc(Nc3ccccc3)nc(N(CCO)CCO)n2)ccc1/C=C/c1ccc(Nc2nc(Nc3ccccc3)nc(N(CCO)CCO)n2)cc1S(=O)(=O)O [CFW, calcofluor white]
concentration that inhibited NaD1-resistant strains but not the wild type [1]: 10 µg/mL
concentration at which sensitivity of the NaD1-resistant strains was observed [1]: 1 µg/mL

[Cl-].[Na+] [NaCl]
growth of NaD1-resistant strains relative to wild-type ([1]; 200 mM NaCl in YPD agar): grew better than wild-type

CCCCCCCCCCCCOS(=O)(=O)[O-].[Na+] [SDS]
concentration that inhibited NaD1-resistant strains but not the wild type [1]: 100 µg/mL
concentration at which sensitivity of the NaD1-resistant strains was observed [1]: 12.5 µg/mL

CC[C@H](C)C[C@H](C)CCCCCCCCC(=O)N[C@H]1C[C@@H](O)[C@@H](NCCN)NC(=O)[C@@H]2[C@@H](O)CCN2C(=O)[C@H]([C@H](O)CCN)NC(=O)[C@H]([C@H](O)[C@@H](O)c2ccc(O)cc2)NC(=O)[C@@H]2C[C@@H](O)CN2C(=O)[C@H]([C@@H](C)O)NC1=O [caspofungin]
MIC [2]: 0.025 µM (≈ 0.0273 µg/mL)
MIC [3]: 0.5 µM (≈ 0.547 µg/mL)
MIC [4]: 0.5 µM (≈ 0.547 µg/mL)
MIC ([5]; Table 1, Wild-type, ½ PDB, 24 h at 30°C, OD600, read-out: Caspofungin MIC): 0.02 µM (≈ 0.0219 µg/mL)
MIC ([5]; initial MIC at the start of sub-culturing, read-out: initial MIC): 0.01 µM (≈ 0.0109 µg/mL)
MIC [6]: 0.02 µM (≈ 0.0219 µg/mL)
sensitivity of NaD1-resistant strains compared with wild type [7]: as sensitive to caspofungin as the wild-type strain
MIC [8]: 0.5 µM (≈ 0.547 µg/mL)
rounds of sub-culture to achieve growth at concentrations 32-fold higher than the initial MIC [9]: 15 rounds
MIC ([10]; Saccharomyces cerevisiae, read-out: MIC against caspofungin-resistant isolates): 0.5 µM (≈ 0.547 µg/mL)
fold more resistant than no treatment control / wild type (MIC ratio) ([10]; caspofungin-resistant isolates versus no treatment control / wild type): 25 fold
MIC [11]: 0.025 µM (≈ 0.0273 µg/mL)
MIC [12]: 0.025 µM (≈ 0.0273 µg/mL)

OO [hydrogen peroxide]
growth of NaD1-resistant strains relative to wild-type ([1]; range of hydrogen peroxide concentrations in YPD agar): grew the same as the wild-type strain

Source: paper PMC6066574, “Resistance to the Plant Defensin NaD1 Features Modifications to the Cell Wall and Osmo-Regulation Pathways of Yeast” (Frontiers in Microbiology, 2018)
